Active and inactive are the calls of the source. No cut-off for these calls is given here.
What was measured:
[1] = test system: BHK; experiment: Activation of dog NCX1 expressed in BHK cells assessed as increase in Na+ free solution induced calcium level at 10 uM by fluo-2 AM dye based assay; assay type: cell-based; conditions: Canis lupus familiaris, filed as activator
[2] = test system: BHK; experiment: Activation of dog NCX1 expressed in BHK cells assessed as increase in Na+ free solution induced calcium level at 0.1 to 10 uM by fluo-4 AM dye based assay; assay type: cell-based; conditions: Canis lupus familiaris, filed as activator, dose 0.1-10 µM
[3] = test system: Cortical neurone; experiment: Neuroprotective activity against rat primary cortical neurons assessed as reduction in cell injury at 10 uM preincubated with compound followed by compound washout and OGD and RX exposure by MTT assay; assay type: functional, cell-based
[4] = test system: Cortical neurone; experiment: Neuroprotective activity against rat primary cortical neurons assessed as reduction in cell injury under hypoxic condition by MTT assay; assay type: functional, cell-based; conditions: dose 10.0 µM
[5] = test system: Cortical neurone; experiment: Neuroprotective activity against rat primary cortical neurons assessed as reduction in cell injury under RX and chemical hypoxia condition by MTT assay; assay type: functional, cell-based; conditions: dose 10.0 µM
[6] = Inhibition of dog NCX1 expressed in BHK cells assessed as decrease in Na+ free solution induced calcium level by patch-clamp electrophysiology assay; assay type: cell-based; conditions: Canis lupus familiaris
[7] = test system: BHK; experiment: Activation of dog NCX3 expressed in BHK cells assessed as increase in Na+ free solution induced calcium level at 10 uM by fluo-2 AM dye based assay; assay type: cell-based; conditions: Canis lupus familiaris, filed as activator
[8] = test system: BHK; experiment: Activation of dog NCX3 expressed in BHK cells assessed as increase in Na+ free solution induced calcium level at 0.1 to 10 uM by fluo-4 AM dye based assay; assay type: cell-based; conditions: Canis lupus familiaris, filed as activator, dose 0.1-10 µM
[9] = test system: BHK; experiment: Activation of dog NCX1 expressed in BHK cells assessed as reverese NCX current at 10 uM at +60 mV holding potential by whole-cell patch clamp electrophysiology method; assay type: cell-based; conditions: Canis lupus familiaris, filed as activator
[10] = test system: BHK; experiment: Activation of dog NCX1 expressed in BHK cells assessed as forward NCX current at 10 uM at -120 mV holding potential by whole-cell patch clamp electrophysiology method; assay type: cell-based; conditions: Canis lupus familiaris, filed as activator
[11] = test system: BHK; experiment: Activation of dog NCX3 expressed in BHK cells assessed as reverse NCX current at 10 uM at + 60 mV holding potential by whole-cell patch clamp electrophysiology method; assay type: cell-based; conditions: Canis lupus familiaris, filed as activator
[12] = test system: BHK; experiment: Activation of dog NCX3 expressed in BHK cells assessed as forward NCX current at 10 uM at -120 mV holding potential by whole-cell patch clamp electrophysiology method; assay type: cell-based; conditions: Canis lupus familiaris, filed as activator
[13] = test system: BHK; experiment: Inhibition of dog NCX1 expressed in BHK cells assessed as decrease in Na+ free solution induced calcium level at 0.01 to 10 uM by Fluo-4 AM dye based assay; assay type: cell-based; conditions: Canis lupus familiaris, dose 0.01-10 µM
[14] = test system: BHK; experiment: Inhibition of dog NCX1 expressed in BHK cells assessed as decrease in Na+ free solution induced calcium level at 10 uM by Fluo-2 AM dye based assay; assay type: cell-based; conditions: Canis lupus familiaris

O=C1CN=C(c2ccccc2Cl)c2cc([N+](=O)[O-])ccc2N1CN1CCCC1
Activity [1]: Active
Activity [2]: Active
Activity [3]: Active
Activity [4]: Dose-Dependent Effect
Activity [5]: Dose-Dependent Effect
IC50 [6]: 10 µM

CC1CCCCN1C(=O)CN1C(=O)CN=C(c2ccccc2)c2cc([N+](=O)[O-])ccc21 (stereo not drawn)
Activity [1]: Active
Activity [7]: Active
Activity [8]: Active
Activity [9]: Active
Activity [10]: Active
Activity [2]: Active
Activity [4]: inactive
Activity [11]: Active
Activity [12]: Active

O=C1CN=C(c2ccccc2)c2cc([N+](=O)[O-])ccc2N1CCN1CCCC1
Activity [4]: inactive
inhibition [13]: Active
inhibition [14]: Active
